Two molecules from paper PMC10743971, “MP Allosterically Activates AMPK to Enhance ABCA1 Stability by Retarding the Calpain-Mediated Degradation Pathway” (International Journal of Molecular Sciences, 2023) can be followed below.

In experiment [1] the target is T1, AMPK (AMPKα1β1γ1) (Rattus norvegicus, UniProt P80385).
T1 construct: gene Prkag1; recombinant full-length AMPKα1β1γ1 heterotrimer, 6×His tag at the N-terminal end of the α-subunit; with AMPK α1 (Prkaa1) and β1 (Prkab1) subunits
Description: MST (Kd […]); ITC (Kd […]); STD-NMR; CD. The experiment is classed as binding.

The target in experiment [2] is T1, AMPK (AMPKα1β1γ1). In words: STD-NMR and NMR competition titration against MP. The experiment is classed as binding.

T1 sequence (P80385 whole entry): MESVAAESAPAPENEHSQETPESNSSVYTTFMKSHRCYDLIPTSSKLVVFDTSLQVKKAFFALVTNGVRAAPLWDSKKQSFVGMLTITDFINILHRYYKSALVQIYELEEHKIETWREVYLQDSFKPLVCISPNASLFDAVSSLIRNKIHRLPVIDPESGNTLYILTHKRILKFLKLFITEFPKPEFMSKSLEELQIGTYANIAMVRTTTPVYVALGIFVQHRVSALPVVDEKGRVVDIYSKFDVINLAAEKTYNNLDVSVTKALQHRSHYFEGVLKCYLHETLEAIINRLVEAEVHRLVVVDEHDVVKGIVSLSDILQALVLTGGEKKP
T1 sequence (P54645 whole entry partner): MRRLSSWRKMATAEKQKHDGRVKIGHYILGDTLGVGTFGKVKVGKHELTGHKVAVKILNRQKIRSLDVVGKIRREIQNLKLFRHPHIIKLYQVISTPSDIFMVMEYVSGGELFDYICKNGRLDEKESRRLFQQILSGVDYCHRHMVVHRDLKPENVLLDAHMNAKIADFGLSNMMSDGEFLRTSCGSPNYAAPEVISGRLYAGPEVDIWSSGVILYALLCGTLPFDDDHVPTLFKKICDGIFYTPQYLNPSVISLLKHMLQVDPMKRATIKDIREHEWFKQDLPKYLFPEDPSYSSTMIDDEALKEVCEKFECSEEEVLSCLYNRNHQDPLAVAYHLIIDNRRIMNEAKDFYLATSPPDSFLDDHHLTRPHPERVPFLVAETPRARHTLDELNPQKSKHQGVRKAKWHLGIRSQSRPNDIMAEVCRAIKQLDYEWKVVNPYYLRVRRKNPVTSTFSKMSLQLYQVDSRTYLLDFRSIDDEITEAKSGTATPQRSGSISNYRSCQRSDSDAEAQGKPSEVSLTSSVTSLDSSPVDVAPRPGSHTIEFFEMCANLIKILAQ
T1 sequence (P80386 2-270 partner): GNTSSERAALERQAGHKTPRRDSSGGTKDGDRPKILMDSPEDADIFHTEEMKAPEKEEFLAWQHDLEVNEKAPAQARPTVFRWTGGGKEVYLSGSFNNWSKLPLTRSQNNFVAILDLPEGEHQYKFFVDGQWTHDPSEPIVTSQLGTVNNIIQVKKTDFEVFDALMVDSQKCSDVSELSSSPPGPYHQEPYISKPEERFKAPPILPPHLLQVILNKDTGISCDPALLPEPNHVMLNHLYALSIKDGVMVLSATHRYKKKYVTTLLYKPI

As usually defined, the Kd is the free concentration of one partner at which half of the binding sites on the other are occupied at equilibrium, for simple one-to-one binding. Lower therefore signals tighter binding. For the molecule `O=P(O)(O)OC[C@H]1O[C@@H](n2cnc3c(Nc4cccc(O)c4)ncnc32)[C@H](O)[C@@H]1O` [MP, ((2R,3S,4R,5R)-3,4-dihydroxy-5-(6-((3-hydroxyphenyl)amino)-9H-purin-9-yl)tetrahydrofuran-2-yl) methyl dihydrogen phosphate], the affinity in experiment [1], expressed as Kd, was 4.27 µM.

`Nc1ncnc2c1ncn2[C@@H]1O[C@H](COP(=O)(O)O)[C@@H](O)[C@H]1O` [AMP, adenosine monophosphate]: the “STD-NMR and NMR competition titration against MP” value in experiment [2] was “adenosine monophosphate (AMP) and MP bind directly to AMPK”.
